Assays:
[1] = biological target: staphylococcal α-hemolysin (αHL) channels (Staphylococcus aureus, UniProt P09616); format: biochemical
[2] = Gramicidin D conductance change in lipid bilayer formed across nanoaperture; format: biochemical; conditions: 5 to 20 μl of 2 mg/ml gD in ethanol added to each bath; within minutes; capacitance remained constant
From the text: Lipid bilayers were formed by the method of Montal and Mueller (1972). In practicing the Langmuir-Blodgett technique, one raises two lipid monolayers across an aperture, allowing the lipids to align their hydrophobic tail portions across the aperture so as to form a lipid bilayer. Because of the hydrophobic nature of the lipid tails, in order to form stable bilayers the surface of a BSP must also be hydrophobic. If the substrate is hydrophobic, the lipids can smoothly transition from coating the substrate to spanning the aperture. To reverse the wetting properties of the naturally hydrophilic silicon nitride, the silicon nitride was coated with an alkylsilane (octyltrichlorosilane). Application of this coating was quite simple and very effective. It was not found to be possible to form a bilayer with untreated devices. Use of longer carbon chain silanes or alternative-materials to make the surface even more hydrophobic would further increase bilayer stability.
For smaller apertures, it was more difficult to observe the capacitance change the background. In this case, membrane-bound proteins that affect the electrical properties of the bilayer, such as carriers and ion channels, offered the best proof of the formation of a bilayer. The ion channel peptide Gramicidin D (gD), was chosen for ease of use and large conductance change. […]

Sequence of staphylococcal α-hemolysin (αHL) channels (P09616 27-319 limits assumed): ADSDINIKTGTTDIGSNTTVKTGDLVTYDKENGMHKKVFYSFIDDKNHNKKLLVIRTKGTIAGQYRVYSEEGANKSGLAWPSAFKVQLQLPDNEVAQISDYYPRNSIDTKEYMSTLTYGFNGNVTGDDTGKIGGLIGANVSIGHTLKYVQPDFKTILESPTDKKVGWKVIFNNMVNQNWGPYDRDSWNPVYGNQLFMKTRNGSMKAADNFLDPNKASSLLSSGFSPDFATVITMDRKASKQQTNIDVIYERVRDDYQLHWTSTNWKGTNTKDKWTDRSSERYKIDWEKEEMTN

OC[C@H]1O[C@@H]2O[C@H]3[C@H](O)[C@@H](O)[C@@H](O[C@H]4[C@H](O)[C@@H](O)[C@@H](O[C@H]5[C@H](O)[C@@H](O)[C@@H](O[C@H]6[C@H](O)[C@@H](O)[C@@H](O[C@H]7[C@H](O)[C@@H](O)[C@@H](O[C@H]8[C@H](O)[C@@H](O)[C@@H](O[C@H]1[C@H](O)[C@H]2O)O[C@@H]8CO)O[C@@H]7CO)O[C@@H]6CO)O[C@@H]5CO)O[C@@H]4CO)O[C@@H]3CO [βCD, β-cyclodextrin]
current reduction when a channel becomes blocked [1]: 70±4%

Gramicidin D
conductance of the bilayer [2]: dramatically increased

From patent US6863833B1, “Microfabricated apertures for supporting bilayer lipid membranes” (The Board of Trustees of the Leland Stanford Junior …, priority 2001, dated 2005)
